Bounds are passed on as bounds.

Sequence of human MER (528-end) (Q12866 528-999 limits assumed): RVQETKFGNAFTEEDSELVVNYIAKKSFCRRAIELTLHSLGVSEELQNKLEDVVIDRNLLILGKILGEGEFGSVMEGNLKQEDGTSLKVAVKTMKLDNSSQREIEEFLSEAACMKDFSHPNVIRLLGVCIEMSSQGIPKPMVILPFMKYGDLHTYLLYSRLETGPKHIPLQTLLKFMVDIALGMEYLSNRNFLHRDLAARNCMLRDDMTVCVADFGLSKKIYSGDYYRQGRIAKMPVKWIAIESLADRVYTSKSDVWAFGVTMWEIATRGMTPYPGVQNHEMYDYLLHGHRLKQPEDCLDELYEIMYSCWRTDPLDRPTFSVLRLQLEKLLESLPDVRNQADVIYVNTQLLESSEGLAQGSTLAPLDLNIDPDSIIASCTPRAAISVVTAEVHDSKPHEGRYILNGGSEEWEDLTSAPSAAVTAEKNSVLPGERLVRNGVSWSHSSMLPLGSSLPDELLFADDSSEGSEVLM

The assay addresses human MER (528-end) (Homo sapiens (Human), UniProt Q12866). Nature of the assay: HTRF Kinase Activity Biochemical Assay (KinEASE-TK). The conditions noted are these: 10 uM ATP. The essentials: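 Recombinant human MER (528-end) phosphorylated biotin-TK peptide substrate, 1 h at room temperature. Reaction stopped with detection buffer containing 0.375 nM Eu3+-cryptate anti-TK antibody and 0.062 uM streptavidin-XL665, 1 h further. Activity taken as HTRF ratio 665/620 nm ×10,000, 340 nm excitation.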
In general terms: In TR-FRET formats the signal depends on donor and acceptor labels being close together.
A word on the IC50: it is the concentration that gives 50% inhibition. Read a low IC50 as inhibition by little substance. `Cn1cc(-c2cnc(N)c(C(=O)N[C@@H]3CCN(C(=O)Nc4cccc(Cl)c4)C3)c2)cn1` [Example 14, (R)-2-amino-N-(1-((3-chlorophenyl)carbamoyl)pyrrolidin-3-yl)-5-(1-methyl-1H-pyrazol-4-yl)nicotinamide]: the IC50 is more than 1000 nM.

Consider `Cn1cc(-c2cnc(N)c(C(=O)N[C@@H]3CCN(C(=O)Oc4cccc(-c5ccc(CN6CCC(C(=O)O)C6)cc5)c4)C3)c2)cn1` (stereo partly drawn) [Example 329, 1-((3′-(((R)-3-(2-amino-5-(1-methyl-1H-pyrazol-4-yl)nicotinamido)pyrrolidine-1-carbonyl)oxy)-[1,1′-biphenyl]-4-yl)methyl)pyrrolidine-3-carboxylic acid], for which the IC50 was more than 1000 nM.

In the case of `Cn1cc(-c2cnc(N)c(C(=O)N[C@@H]3CCN(C(=O)c4ccc(C#N)cc4)C3)c2)cn1` [Example 419, (R)-2-amino-N-(1-(4-cyanobenzoyl)pyrrolidin-3-yl)-5-(1-methyl-1H-pyrazol-4-yl)nicotinamide], the IC50 is more than 1000 nM.

As for `Cc1ccc(CN2CC[C@@H](NC(=O)c3cc(-c4cnn(C)c4)cnc3N)C2)cc1C` [Example 214, (R)-2-amino-N-(1-(3,4-dimethylbenzyl)pyrrolidin-3-yl)-5-(1-methyl-1H-pyrazol-4-yl)nicotinamide], the IC50 is more than 1000 nM.

Take `Cn1cc(-c2cnc(N)c(C(=O)N[C@@H]3CCN(C(=O)Oc4ccccc4O)C3)c2)cn1` [Example 98, 2-hydroxyphenyl (R)-3-(2-amino-5-(1-methyl-1H-pyrazol-4-yl)nicotinamido)pyrrolidine-1-carboxylate]: the IC50 was more than 1000 nM.

`Cn1cc(-c2cnc(N)c(C(=O)N[C@@H]3CCN(C(=O)c4ccc(-c5ccc(Cl)cc5)cc4)C3)c2)cn1` [Example 377, (R)-2-amino-N-(1-(4′-chloro-[1,1′-biphenyl]-4-carbonyl)pyrrolidin-3-yl)-5-(1-methyl-1H-pyrazol-4-yl)nicotinamide] registered an IC50 of 100 to 1000 nM.

For `CN1CCN(c2ccc(-c3ccc(C(=O)N4CC[C@@H](NC(=O)c5cc(-c6cnn(C)c6)cnc5N)C4)cc3)cc2)CC1` [Example 383, (R)-2-amino-5-(1-methyl-1H-pyrazol-4-yl)-N-(1-(4′-(4-methylpiperazin-1-yl)-[1,1′-biphenyl]-4-carbonyl)pyrrolidin-3-yl)nicotinamide], the IC50 is more than 1000 nM.

As for `Cn1cc(-c2cnc(N)c(C(=O)N[C@@H]3CCN(C(=O)Cc4ccc(-c5ccccc5)cc4)C3)c2)cn1` [Example 422, (R)—N-(1-(2-([1,1′-biphenyl]-4-yl)acetyl)pyrrolidin-3-yl)-2-amino-5-(1-methyl-1H-pyrazol-4-yl)nicotinamide], the IC50 is more than 1000 nM.

Take `Cn1cc(-c2cnc(N)c(C(=O)N[C@@H]3CCN(C(=O)c4ccc(-c5ccccc5Oc5ccccc5)cc4)C3)c2)cn1` [Example 351, (R)-2-amino-5-(1-methyl-1H-pyrazol-4-yl)-N-(1-(2^1-phenoxy-[1,1′-biphenyl]-4-carbonyl)pyrrolidin-3-yl)nicotinamide]: the IC50 was more than 1000 nM.

`Cn1cc(-c2cnc(N)c(C(=O)N[C@@H]3CCN(C(=O)c4cccc5c(-c6ccc(CN7CCC[C@@H]7CO)cc6)cccc45)C3)c2)cn1` [Example 444] displayed an IC50 of more than 1000 nM.

In turn, `Cn1cc(-c2cnc(N)c(C(=O)N[C@@H]3CCN(C(=O)Oc4cccc(-c5ccc(CNCCCO)cc5)c4)C3)c2)cn1` [Example 328, 4′-(((3-hydroxypropyl)amino)methyl)-[1,1′-biphenyl]-3-yl (R)-3-(2-amino-5-(1-methyl-1H-pyrazol-4-yl)nicotinamido)pyrrolidine-1-carboxylate] came in with an IC50 of 100 to 1000 nM.

`Cn1cc(-c2cnc(N)c(C(=O)N[C@@H]3CCN(C(=O)c4ccc(-c5ccccc5Cl)cc4)C3)c2)cn1` [Example 359, (R)-2-amino-N-(1-(2′-chloro-[1,1′-biphenyl]-4-carbonyl)pyrrolidin-3-yl)-5-(1-methyl-1H-pyrazol-4-yl)nicotinamide] registered an IC50 of 10 to 100 nM.

For `Cn1cc(-c2cnc(N)c(C(=O)N[C@@H]3CCN(C(=O)Nc4ccc(Br)cc4)C3)c2)cn1` [Example 25, (R)-2-amino-N-(1-((4-bromophenyl)carbamoyl)pyrrolidin-3-yl)-5-(1-methyl-1H-pyrazol-4-yl)nicotinamide], the IC50 is more than 1000 nM.

`Cc1sc(-c2ccc(C(=O)N3CC[C@@H](NC(=O)c4cc(-c5cnn(C)c5)cnc4N)C3)cc2)c(C)c1Br` [Example 522, (R)-2-amino-N-(1-(4-(4-bromo-3,5-dimethylthiophen-2-yl)benzoyl)pyrrolidin-3-yl)-5-(1-methyl-1H-pyrazol-4-yl)nicotinamide] gave an IC50 of 100 to 1000 nM.

The compound `CCc1cc(CO[C@H]2CN(C(=O)c3ccc(-c4ccccc4)cc3)C[C@@H]2NC(=O)c2cc(-c3cnn(C)c3)cnc2N)ccc1C` [Example 674, N-((3S,4S)-1-([1,1′-biphenyl]-4-carbonyl)-4-((3-ethyl-4-methylbenzyl)oxy)pyrrolidin-3-yl)-2-amino-5-(1-methyl-1H-pyrazol-4-yl)nicotinamide] had a 50% inhibitory concentration (IC50) of more than 1000 nM.

As to `COc1ccccc1CC(=O)N1CC[C@@H](NC(=O)c2cc(-c3cnn(C)c3)cnc2N)C1` [Example 436, (R)-2-amino-N-(1-(2-(2-methoxyphenyl)acetyl)pyrrolidin-3-yl)-5-(1-methyl-1H-pyrazol-4-yl)nicotinamide], the IC50 was more than 1000 nM.

For the compound `Cn1cc(-c2cnc(N)c(C(=O)N[C@@H]3CCN(C(=O)c4cccc(Br)c4)C3)c2)cn1` [Example 733, (R)-2-amino-N-(1-(3-bromobenzoyl)pyrrolidin-3-yl)-5-(1-methyl-1H-pyrazol-4-yl)nicotinamide], the IC50 was more than 1000 nM.

For the compound `CCNc1cc(OC(=O)N2CC[C@@H](NC(=O)c3cc(-c4cnn(C)c4)cnc3N)C2)ccc1C` [Example 74, 3-(ethylamino)-4-methylphenyl (R)-3-(2-amino-5-(1-methyl-1H-pyrazol-4-yl)nicotinamido)pyrrolidine-1-carboxylate], the IC50 was more than 1000 nM.

In turn, `CN1CCN(C(C)(C)c2ccc(-c3ccc(C(=O)N4CC[C@@H](NC(=O)c5cc(-c6cnn(C)c6)cnc5N)C4)cc3)cc2)CC1` [Example 386, (R)-2-amino-5-(1-methyl-1H-pyrazol-4-yl)-N-(1-(4′-(2-(4-methylpiperazin-1-yl)propan-2-yl)-[1,1′-biphenyl]-4-carbonyl)pyrrolidin-3-yl)nicotinamide] yielded an IC50 of 100 to 1000 nM.

Consider `CCc1ccccc1-c1ccc(C(=O)N2CC[C@@H](NC(=O)c3cc(-c4cnn(C)c4)cnc3N)C2)cc1` [Example 353, (R)-2-amino-N-(1-(2′-ethyl-[1,1′-biphenyl]-4-carbonyl)pyrrolidin-3-yl)-5-(1-methyl-1H-pyrazol-4-yl)nicotinamide], for which the IC50 was in the range of 100 to 1000 nM.

In the case of `Cn1cc(-c2cnc(N)c(C(=O)N[C@@H]3CCN(Cc4cccc(-c5cccc(CO)c5)c4)C3)c2)cn1` [Example 243, (R)-2-amino-N-(1-((3′-(hydroxymethyl)-[1,1′-biphenyl]-3-yl)methyl)pyrrolidin-3-yl)-5-(1-methyl-1H-pyrazol-4-yl)nicotinamide], the IC50 was 100 to 1000 nM.

`Cn1cc(-c2cnc(N)c(C(=O)N[C@@H]3CCN(C(=O)c4ccc(-c5ccc(C(N)=O)c(F)c5)cc4)C3)c2)cn1` [Example 680, (R)-2-amino-N-(1-(4′-carbamoyl-3′-fluoro-[1,1′-biphenyl]-4-carbonyl)pyrrolidin-3-yl)-5-(1-methyl-1H-pyrazol-4-yl)nicotinamide] gave an IC50 of 100 to 1000 nM.

`Cn1cc(-c2cnc(N)c(C(=O)N[C@@H]3CCN(C(=O)Oc4cccc(-c5ccc(CN6CCC[C@H]6C(N)=O)cc5)c4)C3)c2)cn1` [Example 325, 4′-(((S)-2-carbamoylpyrrolidin-1-yl)methyl)-[1,1′-biphenyl]-3-yl (R)-3-(2-amino-5-(1-methyl-1H-pyrazol-4-yl)nicotinamido)pyrrolidine-1-carboxylate] had an IC50 of more than 1000 nM.

Regarding `Cn1cc(-c2cnc(N)c(C(=O)N[C@@H]3CCN(C(=O)Oc4cccc5cccnc45)C3)c2)cn1` [Example 73, quinolin-8-yl (R)-3-(2-amino-5-(1-methyl-1H-pyrazol-4-yl)nicotinamido)pyrrolidine-1-carboxylate], the IC50 is more than 1000 nM.

Regarding `Cn1cc(-c2cnc(N)c(C(=O)N[C@@H]3CCN(C(=O)Oc4ccc5cc(Br)ccc5c4)C3)c2)cn1` [Example 67, 6-bromonaphthalen-2-yl (R)-3-(2-amino-5-(1-methyl-1H-pyrazol-4-yl)nicotinamido)pyrrolidine-1-carboxylate], the IC50 lay within 100 to 1000 nM.

The compound `CN(C)C1CCN(Cc2ccc(-c3cccc(OC(=O)N4CC[C@@H](NC(=O)c5cc(-c6cnn(C)c6)cnc5N)C4)c3)cc2)C1` (stereo partly drawn) [Example 311, 4′-((3-(dimethylamino)pyrrolidin-1-yl)methyl)-[1,1′-biphenyl]-3-yl (3R)-3-(2-amino-5-(1-methyl-1H-pyrazol-4-yl)nicotinamido)pyrrolidine-1-carboxylate] returned an IC50 of 100 to 1000 nM.

The compound `CC1(C)[C@H]2CC=C(CN3CC[C@@H](NC(=O)c4cc(-c5cnn(C6CCNCC6)c5)cnc4N)C3)[C@@H]1C2` [Example 170, 2-amino-N—((R)-1-(((1R,5S)-6,6-dimethylbicyclo[3.1.1]hept-2-en-2-yl)methyl)pyrrolidin-3-yl)-5-(1-(piperidin-4-yl)-1H-pyrazol-4-yl)nicotinamide] showed an IC50 of more than 1000 nM.

Regarding `CC(C)Oc1cccc(NC(=O)N2CC[C@@H](NC(=O)c3cc(-c4cnn(C)c4)cnc3N)C2)c1` [Example 16, (R)-2-amino-N-(1-((3-isopropoxyphenyl)carbamoyl)pyrrolidin-3-yl)-5-(1-methyl-1H-pyrazol-4-yl)nicotinamide], the IC50 is more than 1000 nM.

In turn, `Nc1ncc(-c2ccc(CO)cc2)cc1C(=O)N[C@@H]1CCN(C(=O)Oc2cccc(-c3ccccc3)c2)C1` [Example 81, [1,1′-biphenyl]-3-yl (R)-3-(2-amino-5-(4-(hydroxymethyl)phenyl)nicotinamido)pyrrolidine-1-carboxylate] had an IC50 of 100 to 1000 nM.

The values above are taken from patent US12378224B2 (Dong-A Socio Holdings Co., Ltd., priority 2016, dated 2025).
